Where “and” joins values, the source holds several entries; their conditions need not be identical. Identical values can stand only once. Like-named read-outs stand apart in the source and are kept apart here.
Columns and labels:
[1] = cytotoxicity against HepG2 cells; type: cell-based; settings: human; HepG2; read-out: inhibition IC50 vs HepG2
Description: Cytotoxicity was evaluated in human HepG2 liver cells, using an MTT assay. Briefly, HepG2 cells were cultured in complete Dulbecco’s modified Eagle’s medium (DMEM; Gibco-Invitrogen, No. 11995-065) prepared by supplementing DMEM with 10% heat inactivated FBS (Gibco-Invitrogen, No. 16000-036), 100 units/mL penicillin, and 100 µg/mL streptomycin. Cell viability was assessed using trypan blue. Ninety-six-well plates were seeded with 2 × 10^4 cells per well and incubated at 37 °C overnight in a humidified 5% CO2 atmosphere. Test compound plates were prepared with an INTEGRA assist plus station and 96-well plates containing 11 duplicate 2-fold serial dilutions of test compound suspended in DMSO. The diluted test compound was then added to the corresponding well preseeded with HepG2 cells. […] After incubation, 20 µL of a 0.1 mg/mL solution of resazurin diluted in PBS was added to each well, and all plates were subsequently incubated for 3–4 h in an incubator. Absorbance was determined with the Molecular Devices SpectraMax plate reader. Three independent experiments, each in duplicate, were performed, and the IC50 values were determined using GraphPad Prism software (Version 10) using the non-linear regression equation (sigmoidal dose-response, variable slope).

[2] = test system: P. falciparum mutant T111 lines; test: drug susceptibility of T111-selected cyt b mutant lines; type: cell-based, Plasmodium falciparum; settings: Plasmodium falciparum, DD2, Supplementary Table 4
Description: DNA extractions were performed on clonal parasites using the QIAamp DNA extraction kit (QIAGEN Inc, Valencia, CA) or ZYMO Quick gDNA Miniprep kit (Zymo Research Corp, Irvine, CA). For sequencing of the open reading frame of pfcytb, PCR was performed with genomic DNA using forward and reverse flanking primers for cyt b primer 1: 5’-[…]-3’ and primer 2: 5’-[…]-3’. PCR products were subjected to enzymatic cleanup with ExoSAP-IT (Thermo Fisher Scientific) and sent for Sanger sequencing (Eurofins Genomics, Louisville, KY) with PCR primer 2 paired with an internal forward primer: 5’-[…]-3’ and an internal reverse primer: 5’-[…]-3’. Sequences were assembled using 4Peaks software (Nucleobytes, Amsterdam, Netherlands) and aligned with Clustal Omega (EMBL-EBI). For sequencing of the open reading frame of pfdhodh, PCR was performed with genomic DNA using forward primer: 5’-[…]-3’ and reverse primer: 5’-[…]-3’. PCR products were prepared for Sanger sequencing and analyzed as described above, except using two forward primers: 5’-[…]-3’ and 5’-[…]-3’ and with two reverse primers: 5’-[…]-3’ and 5’-[…]-3’.
(§1) Drug susceptibility assays against P. falciparum strains were performed using a SYBR Green based assay. D6 and Dd2 were obtained from MR4. Tm90-C2B was obtained from WRAIR. Dd2-D1^I22L and ELQ-300 were obtained from VAPORHCS. D10yDHODH was obtained as a courtesy from Dr. Akhil Vaidya at Drexel University. P. yoelii ATV^r and ELQ-300^r clones were obtained from VAPORHCS.

[3] = test system: P. falciparum D6, Dd2, Tm90-C2B, Dd2-D1^I22L, D10yDHODH; test: microbe, parasite or virus in culture; type: cell-based, Plasmodium falciparum; settings: Plasmodium falciparum
Description: as §1

[4] = cited from earlier work
[5] = parameters: method as in reviewer #3 remark; settings: in humans; ref reviewer #3 remark; cited from earlier work
[6] = test system: P. cynomolgi hypnozoites and schizonts; test: in vitro liver-stage P. cynomolgi assay in primary rhesus hepatocytes; type: cell-based, Plasmodium cynomolgi; settings: read-out: inhibition IC50
Description: (§2) The liver-stage P. cynomolgi assay was designed to identify anti-hypnozoite drugs utilizing a 384-well in vitro culture system[31],[37]. Briefly, cryopreserved primary simian hepatocytes (donor lots XGB, OQB, and QHO: BioIVT, Inc.) were seeded in collagen-coated 384-well plates and infected with P. cynomolgi bastianellii (B strain) sporozoites dissected from infected Anopheles dirus mosquitoes. Test compounds were solubilized in 100% DMSO and serially diluted 2-fold to generate up to a 12-point dose-response curve, maintaining a final DMSO concentration of 0.1% across all wells. Two distinct treatment modes were evaluated. For the prophylactic assay, to assess the prevention of infection, compound exposure began 1-hour post-infection with daily media changes on Days 1 and 2. For the radical cure assay, to assess activity against established liver forms, drugs were administered daily from Day 4 through Day 7 post-infection. […] For readout on Day 8, plates were fixed and stained via immunofluorescence to visualize parasite forms (hypnozoites and schizonts) and hepatocyte nuclei, and images were acquired using an Operetta CLS high-content imaging system (PerkinElmer). Host hepatocyte viability was measured in parallel to determine compound toxicity. Parasite forms were automatically quantified using Harmony 4.9 software, and percent inhibition and toxicity were calculated relative to in-plate DMSO vehicle controls. IC50 and CC50 (half-maximal cytotoxic concentrations) were determined by fitting dose-response data to a four-parameter logistic (variable slope) model using a custom Python script incorporating a grid search algorithm.

rhesus hepatocytes = test: host hepatocyte viability in the P. cynomolgi assay; type: cell-based; settings: radical cure mode; read-out: cytotoxicity CC50
Description: as §2

[7] = as above; type: cell-based, rhesus; settings: rhesus monkey; radical cure mode; read-out: cytotoxicity CC50
Description: as §2

[8] = test system: P. falciparum NF54 oocysts in mosquitoes; test: tarsal contact assay; type: in vivo, P. falciparum in Anopheles gambiae G3; settings: 5% by weight film, 6 min contact
Description: The tarsal assay using a thin film was performed. For preparation of a thin film, 25 mL xylenes and 1.0 g low density polyethylene polymer were combined on the lid of a glass petri dish (6 cm) and heated at 150 °C until the polymer was dissolved. Xylenes were occasionally replenished upon evaporation. A solution of xylenes containing […] prodrug was then added to the above solution. […] The crude polymer thin film was then put underneath the glass petri dish, and the assembled apparatus was heated on a hot plate with a weight placed on top. The resulting extruded polymer thin film containing the 5% (w/w) […] prodrug in low-density polyethylene (LDPE) was allowed to cool and removed from the petri dish lid. […] After exposure, the mosquitoes were immediately transferred to a cage and one hour later provided with cultured P. falciparum NF54 gametocyte-infected erythrocytes using a membrane feeder. […] On Day 7 post-infection, mosquitoes were aspirated into 80% ethanol and incubated at -20 °C for 10 min before being transferred to 1X PBS for dissection. […] Midguts were imaged and oocysts counted at 100× magnification on an Olympus Inverted CKX41 microscope to quantify oocyst prevalence and intensity.

[9] = pilot safety study in rhesus monkeys; type: in vivo; settings: response to reviewers
blood-stage P. yoelii [10] = test: 4-day suppression murine model, oral; type: in vivo, P. yoelii in CF1 mice
Description: (§3) Animals were housed at the VAPORHCS in Thoren Maxi-Miser microisolator cages (78 sq. in. floor space) with a maximum density of five females or four males per cage. Cages were maintained on a 12-h light/dark cycle and provided with autoclaved nesting materials (nestlets) for environmental enrichment. All mice had ad libitum access to food and water. Four- to five-week-old female and male outbred CF1 mice (Charles River Laboratories, Raleigh, NC, USA) were randomly assigned to treatment and control groups using a simple randomization procedure (e.g., computer-generated random numbers) to ensure balanced distribution of baseline body weights and starting parasitemia levels across all cohorts. Groups of four mice (n = 4, mean body weight of each group was ~30 g) were infected intravenously with 3.5 × 10^4 P. yoelii (Kenya strain, MRA-428) from a donor animal. Drug administration commenced the day after the animals were inoculated (Day 1). The test drug or the drug combination was dissolved in PEG-400 and administered by oral gavage once daily for 4 successive days in the 4-day suppression model, but only once on Day 1 in the single-dose cure model. Blood was collected via the tail vein with the aid of a syringe needle on Day 5 and then at weekly intervals through Day 28. Blood films were Giemsa-stained and examined microscopically to determine the level of parasitemia. All mice were observed daily to assess clinical signs. Animals with observable parasitemia following the experiments were euthanized; animals cleared of parasitemia from their bloodstream were observed daily with assessment of parasitemia performed weekly until Day 28, at which point, the animal(s) were scored as cured of the infection and then humanely euthanized. All treated mice with a negative smear on Day 28 were considered cured (100% protection). […]

blood-stage P. yoelii [11] = test: single-dose cure murine model, oral; type: in vivo, P. yoelii in CF1 mice
Description: as §3

[12] = test system: luciferase-expressing P. berghei sporozoites; test: liver-stage prophylaxis murine model with IVIS bioluminescence imaging; type: in vivo, P. berghei in Albino C57BL/6 mice; settings: Days -1, 0, 1
Description: Four- to six-week-old female inbred Albino C57BL/6 mice (18–22 g, Jackson Laboratories, Bar Harbor, ME, USA) were utilized. Animals were assigned unique study numbers via ear tags and cage cards and were randomly assigned to treatment or control groups (n = 5 per group) using a weigh-stratified randomization procedure. All animals were quarantined and acclimatized for 7 days prior to study initiation and were housed in a 12:12 light/dark cycle with food and water provided ad libitum. Mice were infected intravenously with 10^4 luciferase-expressing P. berghei sporozoites (ANKA strain) via tail vein injection on Day 0. Drugs were dissolved in PEG-400 and administered orally once per day on Day -1, Day 0, and Day 1. […] Infection reduction was assessed by comparing the bioluminescence signals emitted by treated groups with signals emitted by the vehicle control-treated group at that time point. Later blood-stage parasitemia was determined via flow cytometry. […] Long-term blood-stage efficacy was evaluated starting on Day 6 post-infection and continued for up to 31 days using flow cytometry.
In vivo antimalarial efficacy studies were performed as described above.

[13] = Plasmodium cynomolgi, Hepatocyte, in Macaca mulatta, prophylactic mode, hypnozoite
[14] = Plasmodium cynomolgi, Hepatocyte, in Macaca mulatta, prophylactic mode, schizont
[15] = Plasmodium cynomolgi, Hepatocyte, in Macaca mulatta, radical cure mode, hypnozoite
[16] = Plasmodium cynomolgi, Hepatocyte, in Macaca mulatta, radical cure mode, schizont

CCN(CC)CCCC(C)Nc1ccnc2cc(Cl)ccc12 (stereo not drawn) [CQ, chloroquine]
IC50 at 24 h [1]: 68600 nM | IC50 ([2]; Dd2): 181 ± 15 nM | IC50 ([2]; Dd2-A131S-140I-259L-264L): 205 ± 21 nM | IC50 ([2]; Dd2-B131S-140I-259L-264L): 168 ± 31 nM | IC50 ([2]; Dd2-D0119L-131S-259L (pfdhodh mutation)): 210 ± 34 nM | IC50 ([2]; Dd2-D1131S-140I-259L (pfdhodh mutation)): 162 ± 18 nM | IC50 ([3]; read-out: in vitro IC50 vs P. falciparum, D6): 14 ± 0.7 nM | IC50 ([3]; read-out: in vitro IC50 vs P. falciparum, D10yDHODH): 79 ± 16 nM | IC50 ([3]; read-out: in vitro IC50 vs P. falciparum, Dd2-D1^I22L (ELQ-300-resistant)): 209 ± 26 nM | IC50 ([3]; read-out: in vitro IC50 vs P. falciparum, Tm90-C2B (cyt b Y268S, ATV-resistant)): 211 ± 7.6 nM | T1/2 ([4]; healthy mice, ref PMID: 21646487): about 46 h | T1/2 [5]: 480 to 960 h

CNC(=O)c1ccc(-c2cnc3cnc(C(=O)N(C)c4ccc(Cl)cc4)cn23)cc1 [KDU691]
IC50 ([6]; prophylactic mode, hypnozoite): 120 nM | IC50 ([6]; prophylactic mode, schizont): 98 nM | IC50 ([6]; radical cure mode, hypnozoite): > 20000 nM | IC50 ([6]; radical cure mode, schizont): 190 nM | CC50 (rhesus hepatocytes): > 20000 nM

CO[C@@H]1[C@@H](OC)[C@H](C)[C@@](O)(CC(=O)O)O[C@H]1[C@H](C)[C@H]1O[C@@]2(CC[C@@](C)([C@H]3CC[C@@](C)([C@@H]4O[C@@H]([C@H]5O[C@](C)(O)[C@H](C)C[C@@H]5C)C[C@@H]4O[C@@H]4C[C@H](OC)[C@@H](OC)[C@H](C)O4)O3)O2)C[C@H](O)[C@H]1C [MAD, maduramicin]
IC50 [6, 13]: < 0.98 nM | IC50 [6, 14]: < 0.98 nM | IC50 [6, 15]: 21 nM | IC50 [6, 16]: 41 nM | CC50 at 4 days [7]: 360 nM

CCOC(=O)Oc1c2ccc(Oc3ccc(OC(F)(F)F)cc3)cc2nc2cc(Cl)cc(F)c12 [T111 prodrug]
reduction in oocyst intensity (inhibition) [8]: 97.6% | reduction in oocyst prevalence (inhibition) [8]: 92.5% | tolerability [9]: well-tolerated

COc1cc(C)c2c(Oc3cccc(C(F)(F)F)c3)c(OC)cc(NC(C)CCCN)c2n1 (stereo not drawn) [TQ, tafenoquine]
ED50 of TQ (blood-stage P. yoelii [10]; TQ + 0.03 mg/kg/d T111): 0.59 mg/kg/day | ED50 of TQ (blood-stage P. yoelii [10]; TQ + 0.06 mg/kg/d T111): 0.12 mg/kg/day | ED50 of TQ (blood-stage P. yoelii [10]; TQ + 0.12 mg/kg/d T111): 0.05 mg/kg/day | ED50 of TQ (blood-stage P. yoelii [10]; TQ alone, female CF1 mice): 1.70 mg/kg/day | % survival through Day 28 (blood-stage P. yoelii [11]; TQ 15 + T111 0 mg/kg): 0% | number of mice cured on Day 28 (blood-stage P. yoelii [11]; TQ 15 + T111 0 mg/kg): 0/4 | parasitemia burden on Day 5 (blood-stage P. yoelii [11]; TQ 15 + T111 0 mg/kg): 0 | % survival through Day 28 (blood-stage P. yoelii [11]; TQ 20 + T111 0 mg/kg): 25% | number of mice cured on Day 28 (blood-stage P. yoelii [11]; TQ 20 + T111 0 mg/kg): 1/4 | parasitemia burden on Day 5 (blood-stage P. yoelii [11]; TQ 20 + T111 0 mg/kg): 0 | % survival through Day 28 (blood-stage P. yoelii [11]; TQ 30 + T111 0 mg/kg): 75% | number of mice cured on Day 28 (blood-stage P. yoelii [11]; TQ 30 + T111 0 mg/kg): 3/4 | parasitemia burden on Day 5 (blood-stage P. yoelii [11]; TQ 30 + T111 0 mg/kg): 0 | % survival through Day 28 (blood-stage P. yoelii [11]; TQ 40 + T111 0 mg/kg): 100% | number of mice cured on Day 28 (blood-stage P. yoelii [11]; TQ 40 + T111 0 mg/kg): single-dose cure in all treated mice and 4/4 | parasitemia burden on Day 5 (blood-stage P. yoelii [11]; TQ 40 + T111 0 mg/kg): 0 | IC50 [6, 13]: 180 nM | IC50 [6, 14]: 170 nM | IC50 [6, 15]: 8100 nM | IC50 [6, 16]: 9800 nM | CC50 at 4 days [7]: > 20000 nM | protection from liver-stage infection ([12]; 1 mg/kg/day oral): did not clear liver-stage infection | protection from liver-stage infection ([12]; 10 mg/kg/day oral): full protection | T1/2 ([4]; mouse liver, ref internal data from WRAIR): 75 h | T1/2 ([4]; mouse plasma, ref internal data from WRAIR): 50 h | T1/2 [5]: 336 h

Source: publication PMC13168289, “Potent acridone antimalarial against all three life stages of Plasmodium” (Nature Communications, 2026)
